Experimental data taken from paper PMC8489181 (Clinical cancer research : an official journal of the …, 2020).

Experiments:
[1] = ribociclib CYP3A4 inhibitor, everolimus CYP3A4 substrate; cited from earlier work
[2] = tested on: postmenopausal women with ER+, HER2− ABC; test: Dose-limiting toxicities in cycle 1; assay type: in vivo
[3] = Everolimus whole blood pharmacokinetics; assay type: in vivo, human; settings: for AUC(0-t): AUC0–24h at steady state; for AUC(0-t) / Cmax: everolimus 2.5 mg; for Cmax: geometric mean Cmax at steady state
[4] = tested on: postmenopausal women with HR+, HER2− advanced breast cancer; test: Safety and tolerability; assay type: in vivo, human
[5] = Ribociclib plasma pharmacokinetics; assay type: in vivo, human; settings: for AUC(0-t): geometric mean AUC0–24h at steady state; for half-life: geometric mean effective half-life based on drug accumulation
[6] = taken with food, ribociclib 3 weeks on/1 week off in a 4-week cycle
[7] = female, human, whole blood, oral, dose-escalation group 1
[8] = female, human, whole blood, oral, dose-escalation group 2
[9] = dose-escalation group 1 (fasting)
[10] = dose-expansion group 1 (CDK4/6i-naïve)
[11] = dose-expansion group 2 (CDK4/6i-refractory)
[12] = female, human, plasma, oral, dose-escalation group 1
[13] = female, human, plasma, oral, dose-escalation group 2

CO[C@H]1C[C@@H]2CC[C@@H](C)[C@@](O)(O2)C(=O)C(=O)N2CCCC[C@H]2C(=O)O[C@H]([C@H](C)C[C@@H]2CC[C@@H](OCCO)[C@H](OC)C2)CC(=O)[C@H](C)/C=C(\C)[C@@H](O)[C@@H](OC)C(=O)[C@H](C)C[C@H](C)/C=C/C=C/C=C/1C [everolimus]
expected increase of everolimus exposure by treatment with ribociclib [1]: approximately 3.5 fold | recommended phase II dose (RP2D) in the triplet [2, 6]: 2.5 mg once daily | AUC0–24h ([3]; at the RP2D): 303 ng·h/mL | everolimus exposure increase in the presence of ribociclib (dose-dependent DDI) ([3]; dose-escalation phase): two- to fourfold | Tmax ([3]; female, human, whole blood, oral): 1 to 2 h | AUC(0-t) [3, 7]: 166 to 307 ng·h/mL | AUC(0-t) [3, 8]: 117 to 316 ng·h/mL | Cmax [3, 7]: 19.7 to 30.3 ng/mL | Cmax [3, 8]: 8.25 to 29.4 ng/mL | patients requiring ≥1 dose interruption [4, 9]: 70.7% | patients requiring ≥1 dose reduction [4, 9]: 2.4% | patients requiring ≥1 dose interruption ([4]; dose-escalation group 2 (fed)): 83.3% | patients requiring ≥1 dose reduction ([4]; dose-escalation group 2 (fed)): 4.8% | dose reductions ([4]; dose-expansion phase): no dose reductions

C=C1C[C@@H]2[C@H](CC[C@]3(C)C(=O)CC[C@@H]23)[C@@]2(C)C=CC(=O)C=C12 [exemestane]
recommended phase II dose (RP2D) in the triplet ([2]; female, human, in vivo, 28 days): 25 mg once daily | patients requiring ≥1 dose interruption [4, 9]: 61% | patients requiring ≥1 dose interruption ([4]; dose-escalation group 2 (fed)): 71.4%

CN(C)C(=O)c1cc2cnc(Nc3ccc(N4CCNCC4)cn3)nc2n1C1CCCC1 [ribociclib]
recommended phase II dose (RP2D) in the triplet [2, 6]: 300 mg once daily | patients requiring ≥1 dose interruption [4, 9]: 68.3% | patients requiring ≥1 dose reduction [4, 9]: 22.0% | patients requiring ≥1 dose interruption ([4]; dose-escalation group 2 (fed)): 80.9% | patients requiring ≥1 dose reduction ([4]; dose-escalation group 2 (fed)): 33.3% | patients requiring ≥1 dose interruption [4, 10]: 87.5% | patients requiring ≥1 dose reduction [4, 10]: 43.8% | patients requiring ≥1 dose interruption [4, 11]: 82.4% | patients requiring ≥1 dose reduction [4, 11]: 23.5% | Tmax ([5]; female, human, plasma, oral): 1 to 4 h | Cmax ([5]; female, human, plasma, oral, Cmax at steady state, at the RP2D): 773 ng/mL | AUC(0-t) [5, 12]: 4570 to 11100 ng·h/mL | AUC(0-t) [5, 13]: 3970 to 13400 ng·h/mL | Cmax ([5]; female, human, plasma, oral, geometric mean Cmax at steady state, dose-escalation group 1, 200–350 mg dose): 413 to 1000 ng/mL | Cmax ([5]; female, human, plasma, oral, geometric mean Cmax at steady state, dose-escalation group 2): 289 to 955 ng/mL | half-life [5, 12]: 24.9 to 47.6 h | half-life [5, 13]: 29.5 to 49.9 h | mean steady-state exposure in the presence of food ([5]; same dose level, fed versus fasted): slightly lower | DDI in the presence of everolimus and exemestane ([5]; triplet combination, versus single-agent ribociclib exposure): No DDIs were observed
